Measured values reported in patent US20220073941A1, “HERBICIDE-RESISTANT CAMELINA SATIVA PLANTS, AND VARIANT CAMELINA ACETOHYDROXYACID SYNTHASE POLYPEPTIDES” (priority 2019, published 2022).
“And” between values parts separate entries of the source, which are not always exact repeats. Equal values may be shown once.

Key:
Assay in all cases: AHAS product feedback inhibition assay (leucine, isoleucine, valine)
Type in all cases: biochemical, Camelina sativa
[1] = tested on: AHAS, enzyme extract of SRS 934; details: for % activity (AHAS activity as % of control): control 100 mM pyruvate, no added amino acid, per experiment (Exp. 1-3); for % activity (AHAS activity as % of control), means: means of 3 experiments; for Absorbance at 530 nm (AHAS product feedback inhibition assay, raw data), Avg: average of replicates per experiment; for Absorbance at 530 nm (AHAS product feedback inhibition assay, raw data): individual replicates, experiments 1-3
Experimental: (§1) Briefly, for each of the three comparators, leaf and stem (petiole) material was bulk-harvested at the 3-4 leaf stage from at least 30 plantlets, snap-frozen in liquid nitrogen, and stored at −80° C. The AHAS in vitro assay was conducted according to the method of Singh et al (1988), with modifications by Yu (2010) and Rustgi (2014). For each comparator, 4 grams of frozen material were ground to a fine powder with a mortar and pestle in liquid nitrogen and homogenized in 1 volume of cold extraction buffer containing 100 mM potassium phosphate buffer (pH7.5), 10 mM sodium pyruvate, 5 mM MgCl2, 100 μM flavin adenine dinucleotide (FAD), and 10% glycerol. Four 2-mL microcentrifuge tubes were used for each comparator. The homogenate was centrifuged at 13,000 rpm for 10 min at 4° C., supernatant collected and re-centrifuged for an additional 10 minutes under the same conditions. For each tube, 1 mL of supernatant was pipetted into a new 2-mL microcentrifuge tube, and protein was precipitated by the addition of 1 mL of saturated ammonium sulfate. The solution was mixed well by vortex and allowed to stand on ice for 20 minutes, then centrifuged at 13,000 rpm at 4° C. The protein pellet was resuspended in 300 μL of reaction buffer containing 50 mM potassium phosphate buffer (pH7.5), 100 mM sodium pyruvate, 10 mM MgCl2, 1 mM EDTA, 10 μM FAD, 100 mM NaCl, and 1 mM thiamine pyrophosphate. Tubes of each comparator were combined, mixed well, kept on ice and immediately used in the AHAS activity and feedback inhibition assays.
(§2) Total protein concentration of the crude extract was determined by the Bradford method (Bradford, 1976). All assays were conducted using 300 μg of total protein each.
(§3) The feedback inhibition assay was performed by combining equal amounts of extract and amino acids leucine, isoleucine, or valine, respectively, in concentrations of 0.1 mM, 1 mM, 10 mM and 100 mM, according to Yu et al. (2010). The reaction mixture contained 50 μL enzyme extract and 50 μL 100 mM sodium pyruvate and inhibitor amino acid. The reaction was incubated at 37° C. for 60 minutes, then stopped and acetolactate converted to acetoin with the addition of 20 μL of 6 N H2SO4 and incubated at 60° C. for 15 minutes. A separate background “blank” was included for each sample group by adding 20 μL of 6 N H2SO4 prior to the addition of the enzyme extracts. Then, 95 μL of 0.55% w/v creatine solution and 95 μL of α-naphthol solution (5.5% w/v in 5 N NaOH) were added and the mixture incubated at 60° C. for a further 15 minutes. After cooling to room temperature for 15 minutes, enzyme activity was determined colorimetrically by reading the absorbance at 530 nm. Three independent experiments were conducted. Experiment 1 and 2 each contained 2 technical replicates, while experiment 3 included 3 technical replicates.

[2] = tested on: AHAS, enzyme extract of 14CS0851-01-14; details: for % activity (AHAS activity as % of control): control 100 mM pyruvate, no added amino acid, per experiment (Exp. 1-3); for % activity (AHAS activity as % of control), means: means of 3 experiments; for Absorbance at 530 nm (AHAS product feedback inhibition assay, raw data), Avg: average of replicates per experiment; for Absorbance at 530 nm (AHAS product feedback inhibition assay, raw data): individual replicates, experiments 1-3; for sensitivity of AHAS to feedback inhibition, comparison of enzyme extracts: extracts of 14CS0851-01-14, SRS 934 and MIDAS™ compared, 1 mM, 10 mM, 100 mM
Experimental: as §1, §2, §3

[3] = tested on: AHAS, enzyme extract of MIDAS™; details: for % activity (AHAS activity as % of control): control 100 mM pyruvate, no added amino acid, per experiment (Exp. 1-3); for % activity (AHAS activity as % of control), means: means of 3 experiments; for Absorbance at 530 nm (AHAS product feedback inhibition assay, raw data), Avg: average of replicates per experiment; for Absorbance at 530 nm (AHAS product feedback inhibition assay, raw data): individual replicates, experiments 1-3
Experimental: as §1, §2, §3

[4] = 1 mM amino acid final concentration
[5] = 10 mM amino acid final concentration
[6] = 100 mM amino acid final concentration

| SMILES | % activity (AHAS activity as % of control) ([1]; 1 mM final concentration) | % activity (AHAS activity as % of control), means ([1]; 1 mM final concentration) [%] | % activity (AHAS activity as % of control) ([1]; 10 mM final concentration) | % activity (AHAS activity as % of control), means ([1]; 10 mM final concentration) [%] | % activity (AHAS activity as % of control) ([1]; 100 mM final concentration) | % activity (AHAS activity as % of control), means ([1]; 100 mM final concentration) [%] | % activity (AHAS activity as % of control) ([2]; 1 mM final concentration) | % activity (AHAS activity as % of control), means ([2]; 1 mM final concentration) [%] | % activity (AHAS activity as % of control) ([2]; 10 mM final concentration) | % activity (AHAS activity as % of control), means ([2]; 10 mM final concentration) [%] | % activity (AHAS activity as % of control) ([2]; 100 mM final concentration) | % activity (AHAS activity as % of control), means ([2]; 100 mM final concentration) [%] | % activity (AHAS activity as % of control) ([3]; 1 mM final concentration) | % activity (AHAS activity as % of control), means ([3]; 1 mM final concentration) [%] | % activity (AHAS activity as % of control) ([3]; 10 mM final concentration) | % activity (AHAS activity as % of control), means ([3]; 10 mM final concentration) [%] | % activity (AHAS activity as % of control) ([3]; 100 mM final concentration) | % activity (AHAS activity as % of control), means ([3]; 100 mM final concentration) [%] | Absorbance at 530 nm (AHAS product feedback inhibition assay, raw data), Avg [1, 4] | Absorbance at 530 nm (AHAS product feedback inhibition assay, raw data) [1, 4] | further results |
| --- | --- | --- | --- | --- | --- | --- | --- | --- | --- | --- | --- | --- | --- | --- | --- | --- | --- | --- | --- | --- | --- |
| CC(C)C[C@H](N)C(=O)O [Leu] | 51.5% and 83.5% and 45.2% | 60.1 | 45.1% and 70.4% and 43.0% | 52.8 | 37.2% and 59.1% and 40.6% | 45.7 | 48.8% and 63.7% and 57.9% | 56.8 | 41.6% and 58.1% and 39.5% | 46.4 | 34.2% and 52.1% | 40.2 | 50.4% and 63.2% and 45.2% | 52.9 | 39.8% and 58.2% and 39.6% | 45.9 | 33.2% and 53.3% and 38.1% | 41.6 | – | – | – |
| CC(C)[C@H](N)C(=O)O [Val] | 58.3% and 47.9% and 78.7% | 61.7 | 46.5% and 47.0% and 77.8% | 57.1 | 41.0% and 35.4% and 61.7% | 46.1 | 51.0% and 49.1% and 88.5% | 62.8 | 46.9% and 45.0% and 76.1% | 56.0 | 35.5% and 34.8% and 66.2% | 45.5 | 55.6% and 49.8% and 71.2% | 58.9 | 48.0% and 47.5% and 67.0% | 54.2 | 40.7% and 37.8% and 58.2% | 45.6 | – | – | – |
| CC[C@H](C)[C@H](N)C(=O)O [isoleucine] | – | – | – | – | – | – | – | – | – | – | – | – | – | – | – | – | – | – | 0.2535 and 0.224 and 0.115 | 0.251 and 0.256 and 0.245 and 0.203 and 0.120 and 0.111 and 0.114 | Absorbance at 530 nm (AHAS product feedback inhibition assay, raw data), Avg [1, 5]: 0.234 and 0.187 and 0.093; Absorbance at 530 nm (AHAS product feedback inhibition assay, raw data) [1, 5]: 0.233 and 0.235 and 0.219 and 0.154 and 0.091 and 0.089 and 0.100; Absorbance at 530 nm (AHAS product feedback inhibition assay, raw data), Avg [1, 6]: 0.186 and 0.156 and 0.069; Absorbance at 530 nm (AHAS product feedback inhibition assay, raw data) [1, 6]: 0.196 and 0.176 and 0.177 and 0.134 and 0.065 and 0.069 and 0.073; Absorbance at 530 nm (AHAS product feedback inhibition assay, raw data), Avg [2, 4]: 0.296 and 0.229 and 0.105; Absorbance at 530 nm (AHAS product feedback inhibition assay, raw data) [2, 4]: 0.305 and 0.287 and 0.238 and 0.220 and 0.106 and 0.104; Absorbance at 530 nm (AHAS product feedback inhibition assay, raw data), Avg [2, 5]: 0.209 and 0.186 and 0.088; Absorbance at 530 nm (AHAS product feedback inhibition assay, raw data) [2, 5]: 0.217 and 0.201 and 0.200 and 0.171 and 0.087 and 0.082 and 0.094; Absorbance at 530 nm (AHAS product feedback inhibition assay, raw data), Avg [2, 6]: 0.182 and 0.145 and 0.061; Absorbance at 530 nm (AHAS product feedback inhibition assay, raw data) [2, 6]: 0.188 and 0.176 and 0.70 and 0.120 and 0.061 and 0.072 and 0.052; sensitivity of AHAS to feedback inhibition, comparison of enzyme extracts [2]: no significant difference; Absorbance at 530 nm (AHAS product feedback inhibition assay, raw data), Avg [3, 4]: 0.327 and 0.238 and 0.141; Absorbance at 530 nm (AHAS product feedback inhibition assay, raw data) [3, 4]: 0.306 and 0.348 and 0.271 and 0.204 and 0.136 and 0.138 and 0.149; Absorbance at 530 nm (AHAS product feedback inhibition assay, raw data), Avg [3, 5]: 0.2675 and 0.192; Absorbance at 530 nm (AHAS product feedback inhibition assay, raw data) [3, 5]: 0.275 and 0.208 and 0.176 and 0.100 and 0.107 and 0.102; Absorbance at 530 nm (AHAS product feedback inhibition assay, raw data), Avg [3, 6]: 0.195 and 0.077; Absorbance at 530 nm (AHAS product feedback inhibition assay, raw data) [3, 6]: 0.194 and 0.176 and 0.149 and 0.080 and 0.075 and 0.078 |
| CC(C)C[C@H](N)C(=O)O [leucine] | – | – | – | – | – | – | – | – | – | – | – | – | – | – | – | – | – | – | 0.204 and 0.192 and 0.089 | 0.2 and 0.208 and 0.225 and 0.158 and 0.097 and 0.085 and 0.086 | Absorbance at 530 nm (AHAS product feedback inhibition assay, raw data), Avg [1, 5]: 0.1785 and 0.162 and 0.085; Absorbance at 530 nm (AHAS product feedback inhibition assay, raw data) [1, 5]: 0.17 and 0.187 and 0.163 and 0.140 and 0.092 and 0.091 and 0.071; Absorbance at 530 nm (AHAS product feedback inhibition assay, raw data), Avg [1, 6]: 0.1475 and 0.136 and 0.080; Absorbance at 530 nm (AHAS product feedback inhibition assay, raw data) [1, 6]: 0.154 and 0.141 and 0.167 and 0.104 and 0.084 and 0.068 and 0.089; Absorbance at 530 nm (AHAS product feedback inhibition assay, raw data), Avg [2, 4]: 0.204 and 0.149 and 0.094; Absorbance at 530 nm (AHAS product feedback inhibition assay, raw data) [2, 4]: 0.214 and 0.194 and 0.162 and 0.136 and 0.079 and 0.099 and 0.105; Absorbance at 530 nm (AHAS product feedback inhibition assay, raw data), Avg [2, 5]: 0.174 and 0.136 and 0.064; Absorbance at 530 nm (AHAS product feedback inhibition assay, raw data) [2, 5]: 0.183 and 0.165 and 0.151 and 0.120 and 0.066 and 0.061 and 0.067; Absorbance at 530 nm (AHAS product feedback inhibition assay, raw data), Avg [2, 6]: 0.122 and 0.056; Absorbance at 530 nm (AHAS product feedback inhibition assay, raw data) [2, 6]: 0.146 and 0.14 and 0.138 and 0.105 and 0.051 and 0.060 and 0.057; sensitivity of AHAS to feedback inhibition, comparison of enzyme extracts [2]: no significant difference; Absorbance at 530 nm (AHAS product feedback inhibition assay, raw data), Avg [3, 4]: 0.2245 and 0.180 and 0.106; Absorbance at 530 nm (AHAS product feedback inhibition assay, raw data) [3, 4]: 0.215 and 0.234 and 0.198 and 0.162 and 0.102 and 0.105 and 0.112; Absorbance at 530 nm (AHAS product feedback inhibition assay, raw data), Avg [3, 5]: 0.1775 and 0.166 and 0.093; Absorbance at 530 nm (AHAS product feedback inhibition assay, raw data) [3, 5]: 0.178 and 0.177 and 0.181 and 0.150 and 0.096 (2×) and 0.088; Absorbance at 530 nm (AHAS product feedback inhibition assay, raw data), Avg [3, 6]: 0.148 and 0.152 and 0.090; Absorbance at 530 nm (AHAS product feedback inhibition assay, raw data) [3, 6]: 0.142 and 0.154 and 0.153 and 0.150 and 0.078 and 0.096 (2×) |
